Results on one compound are retold here after patent US9533969B2, “Materials and method for inhibiting replication protein A and uses thereof” (Indiana University Research and Technology Corp., priority 2010, dated 2017).

One series deals with H460 cells. The series is described as follows: Combination index analysis with cisplatin or etoposide. It counts as cell-based, human. Particulars: 48 hours. On the procedure:
In addition to its essential role in DNA replication, RPA is required for the repair of bulky DNA adducts as well as DNA breaks induced by various types of exogenous and endogenous agents. […] In order to determine the effect of RPA inhibition on cellular sensitivity to cisplatin, the combination index (CI) (20) was measured. Referring now to FIG. 6. As illustrated in this experiment, compound TDLR-505 acts synergistically with both cisplatin and etoposide in H460 cells. H460 cells were treated with increasing fractions of the IC50 concentration of either cisplatin or etoposide with compound TDLR-505 for 48 hours. After treatment, cells were harvested and analyzed by annexin V/PI flow cytometry. Open circles indicate CI analysis of cisplatin with TDLR-505 and closed circles represent etoposide with TDLR-505. The combination index analysis was performed as previously described (20). The data are presented as the average±SD from (N=3). When cisplatin and compound TDLR-505 were used in combination, cell viability was decreased to a level that was greater than that induced by either agent alone, resulting in a synergy between the two compounds and CI of 0.4 at the highest fraction of cells affected. […] The ability of compound TDLR-505 to synergize with etoposide was also examined. Etoposide induces replication fork arrest and DNA damage response, both cellular processes that require RPA (21).

The test system of a further series is NOD/SCID mice. Conditions: mouse, in vivo. On the procedure:
Mice were monitored for signs of overt toxicity and bodyweights measured three times per week. Mice were sacrificed and gross necroscopy performed to assess organ weights and inspected for signs of toxicity. […] NOD/SCID mice were then implanted with 5×10^6 H460 cells in 0.2 ml of 50% Matrigel subcutaneously. Tumors were allowed to develop for 7 days and TDRL-505 was administered via oral gavage 2× per week for one week. Tumor volumes were calculated by measuring the width and the length of the tumors and using these measurements in the equation: vol.=1×w^2/2.
Referring now to Table 3. […] Oral dosing in 0.1% Tween 80/methylcellulose was also well tolerated up to 800 mg/kg.

For the next series, the system named is RPA. The series is described as follows: Indirect immunofluorescence of RPA in H460 cells. In kind it is cell-based, human. Particulars: 50 μM, 3 hours. The method, then:
H460 cells were plated on chamber slides (LabTek) as described above. Cells were then treated for 3 hours with either 50 μM of compound TDLR-505 or vehicle as indicated and following treatment, cells were fixed in 4% paraformaldehyde at 25° C. for 3 minutes followed by washing in 0.2% Triton X-100 for 2 minutes at 4° C. The slides were then blocked in 15% FBS in PBS for 1 hour at 25° C. and then incubated with anti-RPA 34 primary antibody (Neomarkers) at a dilution of 1:500 in 15% FBS for 1 hour. Slides were then washed 3×10 minutes with 15% FBS and then incubated with Alexa Fluor-594 goat-anti-mouse secondary antibody (Invitrogen) at a dilution of 1:300 for 1 hour. Slides were again washed and stained with 300 nM DAPI diluted in PBS-EDTA for five minutes. […] Slides were visualized and images analyzed and quantified using ImageJ software.
These cellular effects seen following treatment with compound TDLR-505 correlate with an inability of RPA to interact with DNA which could then result in numerous possibilities including degradation or redistribution of RPA within the cell. […] Referring now to FIG. 4C, H460 cells were treated with 50 μM compound TDLR-505 or vehicle for 3 hours and analyzed for RPA expression and localization by indirect immunofluorescence using an Alexa Fluor594 secondary antibody (red). […] RPA expression was assessed via western blot analysis probing for the p34 subunit. […]

Series [1] can be described thus: Pharmacokinetic analysis in mice. In kind it is in vivo. Particulars: for AUC(0-t) / Cmax / Tmax / half-life: mouse, serum. On the procedure: Pharmacokinetic analysis. TDRL-505 was administered to mice at 200 mg/kg either ip or po and blood drawn at 1, 2, 4, 8, 24 and 48 hours post treatment. Serum concentration of TDRL-505 was measured using a HPLC MS/MS protocol and PK parameters analysis using on-compartmental analysis.
Based on the in vivo anticancer activity of TRL-505 a comparison of pharmacokinetic parameters with both ip and po dosing regimens was made. Naive mice were given a single dose and as described in Table 3, blood was drawn at various time intervals and TRDL-505 concentration determined via a HPCL/MSMS protocol developed for this compound.

A further series concerns RPA p34. The series is described as follows: Western blot of RPA p34 in H460 cells. In kind it is cell-based, human. Conditions: 100 μM, 6 hours, without or with 25 μM etoposide. The method, then:
H460 cells were plated and treated with either vehicle or 100 μM compound TDLR-505 in the presence or absence of 25 μM etoposide for 6 hours and then processed for western blot analysis using a RIPA lysis and extraction procedure. RPA was detected with an anti-RPA p34 antibody (Neomarkers) and goat anti-mouse-HRP secondary (Santa Cruz). Bands were visualized using chemiluminescence detection.
These cellular effects seen following treatment with compound TDLR-505 correlate with an inability of RPA to interact with DNA which could then result in numerous possibilities including degradation or redistribution of RPA within the cell. Indirect immunofluorescence was used to assess how inhibition of RPA binding influences cellular localization. Referring now to FIG. 4C, H460 cells were treated with 50 μM compound TDLR-505 or vehicle for 3 hours and analyzed for RPA expression and localization by indirect immunofluorescence using an Alexa Fluor594 secondary antibody (red). Slides were counter stained with DAPI (blue) and images merged. Magnification of the boxed cells is presented below the low magnification images. […] (FIG. 4C). […] Referring now to FIG. 4D, H460 cells were treated with vehicle or 100 μM compound TDLR-505 without or with etoposide (25 μM) as indicated in the figure. RPA expression was assessed via western blot analysis probing for the p34 subunit. […]
A general note: In western blotting, separated proteins are transferred to a membrane and probed.

The mark [2] stands for this setting: 200 mg/Kg PO, Methylcellulose/DMSO.

As to `CCOc1ccc2cc(C3CC(c4ccc(Br)cc4)=NN3C(=O)CCC(=O)O)c(Cl)nc2c1` (centres unmarked) [TDRL-505], in the series with H460 cells (CI values greater than one), the “interaction with cisplatin at lower fractions of cells affected (in words)” value was “additive and then antagonistic”. Moreover, the “interaction with etoposide (in words)” value in the series on H460 cells (all fractions of cells affected) was “synergistic activity”. Further, the “combination index (CI) with cisplatin” value with H460 cells (highest fraction of cells affected) was 0.4. In addition, the “well tolerated dose, IP” value in the series on NOD/SCID mice (ip) is reported as “up to 400 mg/kg”. Further, the “well tolerated dose, oral” value in the series on NOD/SCID mice (po) is “up to 800 mg/kg”. For the same compound, in the series on RPA, the “intensity of RPA staining vs vehicle (in words)” value is listed as “decrease in the intensity of RPA staining”. For the same compound, the “cells with RPA staining intensity >70% of the maximum” value in the series with RPA (vehicle 23%) amounted to 15%. In addition, in series [1] (200 mg/Kg IP, Tween80/DMSO), the Cl/F came to 8.29 mL/h; the Vdss is 0.11 L; the AUC(0-t) (as a rule, the area under the concentration-time curve up to a stated or last time point) amounted to 577 µg·h/mL; the Cmax (commonly the peak of the concentration-time curve) is 31700 ng/mL. In series [1] (200 mg/Kg IP, Tween80/DMSO), the Tmax (in general, the time from dosing to the highest level) was determined as 8 h and the half-life (in general, how long it takes for the measured level to halve) is 7.13 h. Besides, in series [1] (setting [2]), the Cl/F amounted to 202.33 mL/h, the Vdss worked out at 0.88 L, the exposure AUC(0-t) turned out to be 25 µg·h/mL and the Cmax is 6400 ng/mL. For the same compound, in series [1] (setting [2]), the time to peak (Tmax) was 1 h and the half-life was 2.62 h. The “RPA expression (p34 western blot, in words)” value in the series on RPA p34 is “not degraded or reduced in expression”.
